What was measured:
[1] = tested on: amaranthus retroflexus L.; experiment: herbicidal activity, soil treatment one day after sowing; format: in vivo
Text: (§1) The infesting species and the agrarian species have been indicated in Table 1 by letters, as follows:
A = amaranthus retroflexus L.
(§2) Method of evaluation of the results (of tests):
(§3) 1 slight differences with respect to the control;
(§4) 3 = considerable activity with damages that definitely impair the further development of most of the small plants; an activity degree already useful for practical purposes;
(§5) 4 = maximum of activity with lack of germination or total containment of the small plants in the emerging stage.
(§6) In the case of an intermediate activity between two classes of the scale, both values are recorded with the one which corresponds to the preeminent activity preceding.
(§7) TABLE 2 reports the activity data of other compounds that fall within the class which is the object of this invention.
(§8) TABLE 3 reports data on the herbicidal activity against infesting herbs, while TABLE 4 reports data concerning the activity on useful species of agricultural cultivations. These tables employ the criterion explained previously. […]

artemisia vulgaris L. = experiment: as above; format: in vivo
Text: as §1
B = artemisia vulgaris L.
as §2, §3, §4, §5, §6, §7, §8

chenopodium album L. = experiment: as above; format: in vivo
Text: as §1, §2, §3, §4, §5, §6, §7, §8

[2] = tested on: echinocloa crus-galli R.S.; experiment: as above; format: in vivo
Text: as §1
D = echinocloa crus-galli R.S.
as §2, §3, §4, §5, §6, §7, §8

setaria glauca L. = experiment: as above; format: in vivo
Text: as §1, §2, §3, §4, §5
(§9) In the case of an intermediate activity between two classes of the scale, both values are recorded with the one which corresponds to the preeminent activity preceding. […]
as §8

vicia sativa L. = experiment: as above; format: in vivo
Text: as §1, §2, §3, §4, §5, §6, §7

avena sativa (oats) = experiment: activity on agrarian species, soil treatment one day after sowing; format: in vivo, Avena sativa L.; details: in vivo
Text: as §1, §2
(§10) 0 = no activity and no difference with respect to the control;
as §3, §4, §5, §6, §7
(§11) TABLE 3 reports data on the herbicidal activity against infesting herbs, while TABLE 4 reports data concerning the activity on useful species of agricultural cultivations. These tables employ the criterion explained previously. The product was spread on the soil one day after sowing, in quantities of 1, 3, 6, 8, 10, 12 and 14 kg/ha.

[3] = tested on: phaseolus vulgaris (bean); experiment: as above; format: in vivo, Phaseolus vulgaris L.; details: in vivo
Text: as §1
I = phaseolus vulgaris (bean)
as §2, §10, §3, §4, §5, §6, §7, §11

pisum sativum L. (pea) = experiment: as above; format: in vivo; details: in vivo
Text: as §1
L = pisum sativum L. (pea)
as §2, §10, §3, §4, §5, §6, §7, §8

[4] = tested on: triticum vulgare L. (wheat); experiment: as above; format: in vivo; details: in vivo
Text: as §1
N = triticum vulgare L. (wheat)
as §2, §10, §3, §4, §5, §6, §7, §11

zea mais L. (corn) = experiment: as above; format: in vivo; details: in vivo
Text: as §1, §2, §10, §3, §4, §5, §6, §7, §11

oryza sativa L. (rice) = experiment: as above; format: in vivo; details: in vivo
Text: as §1
P = oryza sativa L. (rice)
as §2, §10, §3, §4, §5, §6, §7, §11

[5] = tested on: beta vulgaris L. (sugar-beet); experiment: as above; format: in vivo; details: in vivo
Text: as §1
H = beta vulgaris L. (sugar-beet)
as §2, §10, §3, §4, §5, §6, §7, §11

solanum Lycopersicum L. = experiment: as above; format: in vivo; details: in vivo
Text: as §1
M = solanum Lycopersicum L.
as §2, §10, §3, §4, §5, §9

SMILES	activity on A, 0-4 scale ([1]; 6 kg/ha)	activity on B, 0-4 scale (artemisia vulgaris L.; 6 kg/ha)	activity on C, 0-4 scale (chenopodium album L.; 6 kg/ha)	activity on D, 0-4 scale ([2]; 6 kg/ha)	activity on E, 0-4 scale (setaria glauca L.; 6 kg/ha)	activity on F, 0-4 scale (vicia sativa L.; 6 kg/ha)	activity on G, 0-4 scale (avena sativa (oats))	activity on I, 0-4 scale [3]	activity on L, 0-4 scale (pisum sativum L. (pea))	activity on N, 0-4 scale [4]	activity on O, 0-4 scale (zea mais L. (corn))	activity on P, 0-4 scale (oryza sativa L. (rice))	activity on A, 0-4 scale ([1]; 2 kg/ha)	activity on A, 0-4 scale ([1]; 4 kg/ha)	activity on B, 0-4 scale (artemisia vulgaris L.; 4 kg/ha)	activity on C, 0-4 scale (chenopodium album L.; 2 kg/ha)	activity on C, 0-4 scale (chenopodium album L.; 4 kg/ha)	activity on D, 0-4 scale ([2]; 2 kg/ha)	activity on D, 0-4 scale ([2]; 4 kg/ha)	activity on E, 0-4 scale (setaria glauca L.; 2 kg/ha)	also measured
CCN(CC)C(=O)c1cccc(Cl)c1 [PA321, 3,chloro-N,N-diethyl-benzamide, reference compound]	1-2	2	1-2	1	1	1	1	1-0	2	2-3	0-1	2									
CCC(C)N(C(=O)c1cccc(Br)c1)C(C)CC (stereo not drawn) [PA337/3/Br, 3-bromo-N,N-di-sec.butyl-benzamide]		3	4	4	4		0		0	0	0	0	1	2-3	1	1	3	2	4	2-3	activity on E, 0-4 scale (setaria glauca L.; 4 kg/ha): 4; activity on F, 0-4 scale (vicia sativa L.; 2 kg/ha): 0-1; activity on H, 0-4 scale [5]: 1
CCC(C)N(C(=O)c1cc(Cl)c(Cl)cc1Cl)C(C)CC (stereo not drawn) [PA338, 2,4,5-trichloro-N,N-di-sec.butyl-benzamide]	2	1-2	2	3-4	3-4	0-1	0	0	0	0	0	0						2-3	3	2-3	activity on E, 0-4 scale (setaria glauca L.; 4 kg/ha): 3
CCC(C)N(C(=O)c1cc(Cl)ccc1Cl)C(C)CC (stereo not drawn) [PA412, 2,5-dichloro-N,N-di-sec.butyl-benzamide]	3	2	2-3	4	4	0	0	0	0	0	0	0						3		3	activity on A, 0-4 scale ([1]; 3 kg/ha): 2; activity on B, 0-4 scale (artemisia vulgaris L.; 3 kg/ha): 1; activity on C, 0-4 scale (chenopodium album L.; 3 kg/ha): 1-2; activity on D, 0-4 scale ([2]; 1 kg/ha): 1-2; activity on D, 0-4 scale ([2]; 3 kg/ha): 3-4; activity on E, 0-4 scale (setaria glauca L.; 1 kg/ha): 3; activity on E, 0-4 scale (setaria glauca L.; 3 kg/ha): 4; activity on F, 0-4 scale (vicia sativa L.; 3 kg/ha): 0; activity on M, 0-4 scale (solanum Lycopersicum L.): 1
CCC(C)N(C(=O)c1ccc(C)c(Cl)c1)C(C)CC (stereo not drawn) [PA445, 3-chloro,4-methyl-N,N-di-sec.butyl-benzamide]	2	3-4	4	4	4	0-1	0	0	0	0	0	0	0-1	1	2	1	2-3	3	3-4	3-4	activity on B, 0-4 scale (artemisia vulgaris L.; 2 kg/ha): 1; activity on F, 0-4 scale (vicia sativa L.; 2 kg/ha): 0; activity on F, 0-4 scale (vicia sativa L.; 4 kg/ha): 0; activity on M, 0-4 scale (solanum Lycopersicum L.): 0
CCC(C)N(C(=O)c1ccc(Br)c(C)c1)C(C)CC (stereo not drawn) [PA481, 3-methyl,4-bromo-N,N-di-sec.butyl-benzamide]		3	2-3		3-4	0-1	0	0	0	0	0	0									
CCC(C)N(C(=O)c1ccc(Cl)c(Cl)c1Cl)C(C)CC (stereo not drawn) [PA488, 2,3,4-trichloro-N,N-di-sec.butyl-benzamide]	3-4		3	4	4	0	0	0	0	0		0	0	1	0-1	1-2	3	3-4	4		activity on B, 0-4 scale (artemisia vulgaris L.; 2 kg/ha): 0; activity on D, 0-4 scale ([2]; 1 kg/ha): 2; activity on E, 0-4 scale (setaria glauca L.; 4 kg/ha): 4; activity on F, 0-4 scale (vicia sativa L.; 2 kg/ha): 0; activity on F, 0-4 scale (vicia sativa L.; 4 kg/ha): 0
CCC(C)N(C(=O)c1cccc(I)c1)C(C)CC (stereo not drawn) [PA491, 3-iodo-N,N-di-sec.butyl-benzamide]	3-4	4	3-4	4	4	1	0	0	0	0	0	0	1	1-2	3	2	2-3	3		3	activity on B, 0-4 scale (artemisia vulgaris L.; 2 kg/ha): 1; activity on F, 0-4 scale (vicia sativa L.; 2 kg/ha): 0; activity on F, 0-4 scale (vicia sativa L.; 4 kg/ha): 0
CCCCN(C(=O)c1ccc(Cl)c(Cl)c1)C(C)CC (stereo not drawn) [PA514, 3,4-dichloro-N-n.butyl,N-sec.butyl-benzamide]	1	0-1	2	3		0-1	0	0	0	0	0	0						1	2-3	2	activity on E, 0-4 scale (setaria glauca L.; 4 kg/ha): 3; activity on M, 0-4 scale (solanum Lycopersicum L.): 0

— patent publication US3982931A, “N,N-di-sec.butyl-benzamide herbicides” (priority 1967, dated 1976)
